Laboratory results published in US6204293A, “Inhibitors of protein isoprenyl transferases” (University of Pittsburgh, priority 1998, dated 2001).

What follows are compounds tested against T1, Rat brain protein farnesyltransferase (Rattus norvegicus, UniProt Q02293+Q04631) (assay: % inhibition of farnesylation, scintillation proximity assay with biotin-K Ras B fragment). Conditions: Table 1; 1 × 10^-5 M.
T1 construct: Rat brain protein farnesyltransferase activity is measured; from tissue; host or cells: rat brain
T1 sequence (Q02293 whole entry, the tested form may be a part, one chain of several): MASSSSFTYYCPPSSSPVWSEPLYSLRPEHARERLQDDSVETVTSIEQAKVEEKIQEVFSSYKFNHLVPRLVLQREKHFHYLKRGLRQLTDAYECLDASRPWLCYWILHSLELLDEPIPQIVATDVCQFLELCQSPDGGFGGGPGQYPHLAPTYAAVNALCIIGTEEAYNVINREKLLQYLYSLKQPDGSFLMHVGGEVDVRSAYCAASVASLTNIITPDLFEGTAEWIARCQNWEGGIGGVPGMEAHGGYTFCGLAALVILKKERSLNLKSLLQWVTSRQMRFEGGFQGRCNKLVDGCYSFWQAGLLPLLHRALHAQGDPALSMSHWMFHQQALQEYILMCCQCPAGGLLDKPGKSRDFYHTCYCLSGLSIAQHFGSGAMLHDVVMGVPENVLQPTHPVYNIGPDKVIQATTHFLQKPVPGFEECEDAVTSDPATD
Format: biochemical
Outline: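 Rat brain enzyme, purified through three steps, in a scintillation proximity assay kit with biotin-K Ras B fragment substrate at 0.1 mM final. Value is % inhibition of farnesylation.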
`CSCC[C@H](NC(=O)c1ccc(CNC(CO)Cc2ccccc2)cc1-c1ccccc1)C(=O)O` (stereo partly drawn) [Example 714] was tested, and the “% inhibition at 1 × 10^-5 M” value was 56%. For `CSCC[C@H](NC(=O)c1ccc(CN[C@H](CC2CCCCC2)[C@H](O)[C@H](O)CC(C)C)cc1-c1ccccc1)C(=O)O` [Example 715], the “% inhibition at 1 × 10^-5 M” value was 67%. For `CSCC[C@H](NC(=O)c1ccc(CNCCCCc2ccccc2)cc1-c1ccccc1)C(=O)O` [Example 718], the “% inhibition at 1 × 10^-5 M” value was 40%. For `CSCC[C@H](NC(=O)c1ccc(NC(=O)CCN)cc1-c1ccccc1)C(=O)O` [Example 750], the “% inhibition at 1 × 10^-5 M” value was 44%. For `CSCC[C@H](NC(=O)c1ccc(NC(=O)c2cccc(N(C)C)c2)cc1-c1ccccc1)C(=O)O` [Example 752], the “% inhibition at 1 × 10^-5 M” value was 58%. With `COc1cc(Cl)ccc1C(=O)Nc1ccc(C(=O)N[C@@H](CCSC)C(=O)O)c(-c2ccccc2)c1` [Example 753] the “% inhibition at 1 × 10^-5 M” value was 55%. In the case of `COc1ccc(Br)c(C(=O)Nc2ccc(C(=O)N[C@@H](CCSC)C(=O)O)c(-c3ccccc3)c2)c1` [Example 754], the “% inhibition at 1 × 10^-5 M” value is reported as 40%. In the case of `COc1cc(I)c(C(=O)Nc2ccc(C(=O)N[C@@H](CCSC)C(=O)O)c(-c3ccccc3)c2)cc1OC` [Example 756], the “% inhibition at 1 × 10^-5 M” value is reported as 47%. `CSCC[C@H](NC(=O)c1ccc(NC(=O)Cc2ccccc2[N+](=O)[O-])cc1-c1ccccc1)C(=O)O` [Example 757] was tested, and the “% inhibition at 1 × 10^-5 M” value was 58%.

Same assay, conditions: Table 2; 1 × 10^-6 M
With `CSCC[C@H](NC(=O)c1ccc(CN[C@@H](CC2CCCCC2)[C@@H](O)[C@@H](O)CC(C)C)cc1-c1ccccc1)C(=O)O` [Example 716] the “% inhibition at 1 × 10^-6 M” value was 69%. With `CSCC[C@H](NC(=O)c1ccc(CN(C)CC(O)CO)cc1-c1ccccc1C)C(=O)O` (stereo partly drawn) [Example 719] the “% inhibition at 1 × 10^-6 M” value was 90%. With `CCc1nnc(NCc2ccc(C(=O)N[C@@H](CCSC)C(=O)O)c(-c3ccccc3C)c2)s1` [Example 723] the “% inhibition at 1 × 10^-6 M” value was 87%. In the case of `COC(=O)c1cscc1NCc1ccc(C(=O)N[C@@H](CCSC)C(=O)O)c(-c2ccccc2C)c1` [Example 724], the “% inhibition at 1 × 10^-6 M” value is reported as 87%. With `CSCC[C@H](NC(=O)c1ccc(CNc2ccc(S(=O)(=O)Nc3onc(C)c3C)cc2)cc1-c1ccccc1C)C(=O)O` [Example 726] the “% inhibition at 1 × 10^-6 M” value was 81%. For `CSCC[C@H](NC(=O)c1ccc(CN[C@H](CO)Cc2ccccc2)cc1-c1ccccc1C)C(=O)O` [Example 727], the “% inhibition at 1 × 10^-6 M” value was 95%. In the case of `CNCC(=O)Nc1ccc(C(=O)N[C@@H](CCSC)C(=O)O)c(-c2ccccc2)c1` [Example 749], the “% inhibition at 1 × 10^-6 M” value is reported as 84%. `CSCC[C@H](NC(=O)c1ccc(NC(=O)C[C@H]2C[C@@H](C(C)=O)C2(C)C)cc1-c1ccccc1)C(=O)O` [Example 751] was tested, and the “% inhibition at 1 × 10^-6 M” value was 32%. In the case of `CCSC[C@H](CC1CCCCC1)NCc1ccc(C(=O)N[C@@H](CCSC)C(=O)OCOC(=O)C(C)(C)C)c(-c2ccccc2C)c1` [Example 764], the “% inhibition at 1 × 10^-6 M” value is reported as 88%. `CCSC[C@H](CC1CCCCC1)NCc1ccc(C(=O)N(C)[C@@H](CCSC)C(=O)O)c(-c2ccccc2C)c1` [Example 765] was tested, and the “% inhibition at 1 × 10^-6 M” value was 76%. With `CSCC[C@H](NC(=O)c1ccc(S(=O)(=O)N(Cc2ccccc2)c2ccccc2)cc1-c1ccccc1C)C(=O)[O-].[Li+]` [Example 768] the “% inhibition at 1 × 10^-6 M” value was 67%. With `CSCC[C@H](NC(=O)c1ccc(S(=O)(=O)NCCC2CCCCC2)cc1-c1ccccc1C)C(=O)O` [Example 772] the “% inhibition at 1 × 10^-6 M” value was 79%. For `CSCC[C@H](NC(=O)c1ccc(S(=O)(=O)NC2CCN(Cc3ccccc3)CC2)cc1-c1ccccc1C)C(=O)O` [Example 773], the “% inhibition at 1 × 10^-6 M” value was 41%. For `CSCC[C@H](NC(=O)c1ccc(S(=O)(=O)NCCN2CCCCC2)cc1-c1ccccc1C)C(=O)O` [Example 774], the “% inhibition at 1 × 10^-6 M” value was 48%. With `CSCC[C@H](NC(=O)c1ccc(S(=O)(=O)NCCN2CCOCC2)cc1-c1ccccc1C)C(=O)O` [Example 775] the “% inhibition at 1 × 10^-6 M” value was 32%. `COc1ccc(CCNS(=O)(=O)c2ccc(C(=O)N[C@@H](CCSC)C(=O)O)c(-c3ccccc3C)c2)cc1OC` [Example 776] was tested, and the “% inhibition at 1 × 10^-6 M” value was 36%. For `CSCC[C@H](NC(=O)c1ccc(S(=O)(=O)NCCCn2ccnc2)cc1-c1ccccc1C)C(=O)O` [Example 777], the “% inhibition at 1 × 10^-6 M” value was 83%.

Same assay, conditions: Table 3; 1 × 10^-7 M
With `CSCC[C@H](NC(=O)c1ccc(NC(=O)CN)cc1-c1ccccc1)C(=O)O` [Example 748] the “% inhibition at 1 × 10^-7 M” value was 56%. `CSCC[C@H](NC(=O)c1ccc(CN(c2ccccc2)S(=O)(=O)c2ccccc2)cc1-c1ccccc1C)C(=O)O` [Example 769] was tested, and the “% inhibition at 1 × 10^-7 M” value was 90%. `CSCC[C@H](NC(=O)c1ccc(CN(c2ccccc2)S(=O)(=O)c2ccc(C)cc2)cc1-c1ccccc1C)C(=O)O` [Example 770] was tested, and the “% inhibition at 1 × 10^-7 M” value was 91%. In the case of `CSCC[C@H](NC(=O)c1ccc(CN(Cc2ccc(Cl)cc2)c2ccccc2)cc1-c1ccccc1C)C(=O)O` [Example 781], the “% inhibition at 1 × 10^-7 M” value is reported as 91%.

Same assay, conditions: Table 4; 1 × 10^-8 M
With `CSCC[C@H](NC(=O)c1ccc(CN(CCC2CCCCC2)C(=O)c2ccccc2)cc1-c1ccccc1C)C(=O)O` [Example 762] the “% inhibition at 1 × 10^-8 M” value was 84%. With `CSCC[C@H](NC(=O)c1ccc(CN[C@H](CSC2CCCCC2)CC2CCCCC2)cc1-c1ccccc1C)C(=O)O` [Example 766] the “% inhibition at 1 × 10^-8 M” value was 95%. With `CSCC[C@H](NC(=O)c1ccc(CN[C@H](CSc2ccccc2C)CC2CCCCC2)cc1-c1ccccc1C)C(=O)O` [Example 767] the “% inhibition at 1 × 10^-8 M” value was 97%. In the case of `COc1cccc(CN(Cc2ccc(C(=O)N[C@@H](CCSC)C(=O)O)c(-c3ccccc3C)c2)c2ccccc2)c1` [Example 779], the “% inhibition at 1 × 10^-8 M” value is reported as 70%. `CSCC[C@H](NC(=O)c1ccc(CN(c2ccccc2)S(=O)(=O)c2ccc(C(F)(F)F)cc2)cc1-c1ccccc1C)C(=O)O` [Example 780] was tested, and the “% inhibition at 1 × 10^-8 M” value was 71%.

Same assay, conditions: read-out: % inhibition at 1 × 10^-6 M; Table 2; 1 × 10^-6 M
With `CSCC[C@H](NC(=O)c1ccc(CSc2nc(O)cc(Cc3ccccc3)n2)cc1-c1ccccc1C)C(=O)O` [Example 744] the inhibition at 1 µM was 84%.

Same assay, conditions: read-out: % inhibition at 1 × 10^-7 M; Table 3; 1 × 10^-7 M
Compound `CSCC[C@H](NC(=O)c1ccc(CSC2=NCCS2)cc1-c1ccccc1C)C(=O)O` [Example 730] has an inhibition at 0.1 µM of 96%. Compound `CSCC[C@H](NC(=O)c1ccc(CSc2nc3ccccc3[nH]2)cc1-c1ccccc1C)C(=O)O` [Example 732] has an inhibition at 0.1 µM of 84%. With `CSCC[C@H](NC(=O)c1ccc(CSc2nc3cc(C)ccc3[nH]2)cc1-c1ccccc1C)C(=O)O` [Example 733] the inhibition at 0.1 µM was 60%. `CSCC[C@H](NC(=O)c1ccc(CSc2nnc(N)s2)cc1-c1ccccc1C)C(=O)O` [Example 734] showed an inhibition at 0.1 µM of 49%. `CSCC[C@H](NC(=O)c1ccc(CSc2nnc[nH]2)cc1-c1ccccc1C)C(=O)O` [Example 735] gave an inhibition at 0.1 µM of 96%. `CSCC[C@H](NC(=O)c1ccc(CSc2ccccc2C(C)C)cc1-c1ccccc1C)C(=O)O` [Example 739] gave an inhibition at 0.1 µM of 83%. Compound `CSCC[C@H](NC(=O)c1ccc(CSc2ccc(F)cc2)cc1-c1ccccc1C)C(=O)O` [Example 740] has an inhibition at 0.1 µM of 94%. In the case of `CSCC[C@H](NC(=O)c1ccc(CSc2ccc(C)cc2C)cc1-c1ccccc1C)C(=O)O` [Example 741], the inhibition at 0.1 µM is reported as 89%. For `CSCC[C@H](NC(=O)c1ccc(CSc2nc(C)cc(C)n2)cc1-c1ccccc1C)C(=O)O` [Example 743], the inhibition at 0.1 µM was 51%. `CSCC[C@H](NC(=O)c1ccc(CSc2nc3ccccc3c(=O)[nH]2)cc1-c1ccccc1C)C(=O)O` [Example 745] was tested, and the inhibition at 0.1 µM was 93%. With `CSCC[C@H](NC(=O)c1ccc(CSc2ncnc3[nH]ncc23)cc1-c1ccccc1C)C(=O)O` [Example 746] the inhibition at 0.1 µM was 84%. With `CSCC[C@H](NC(=O)c1ccc(CSc2ncnc3[nH]cnc23)cc1-c1ccccc1C)C(=O)O` [Example 747] the inhibition at 0.1 µM was 68%.
